We go through 45 compounds from paper PMC9788509, “Arginine Homopeptide of 11 Residues as a Model of Cell-Penetrating Peptides in the Interaction with Bacterial Membranes” (Membranes, 2022).

For one data set, the system named is Escherichia coli (ML35). The data set is classed as cell-based. The conditions noted are these: E. coli ML35; 1 × 10^7 CFU/mL; 1% TSB, 10 mM Hepes; 10, 20 and 30 μM peptide, 1 h at 37 °C; serial dilution, 18 h at 37 °C in complete TSB; turbidity; duplicate. The procedure: (§1) The strains used, Staphylococcus aureus (ATCC 25923) and Escherichia coli (ML35), were obtained from the Public Health Institute of Chile (ISP).
(§2) To determine the antibacterial activity of the peptides, a microplate dilution test was performed. The necessary calculations were completed with a bacterial concentration of 1 × 10^7 CFU/mL and the cells were exposed to 50 µL of Tryptic soy broth (TSB) with 1%, 10 mM of Hepes buffer and 10, 20 and 30 μM of peptide for 1 h at 37 °C. Finally, a serial dilution was performed and incubated for 18 h at 37 °C in complete TSB, and the minimum bactericidal concentration (MCB) was determined depending on the turbidity of the plate. All experiments were completed in duplicate. A synthetic peptide of sequence KKWRWWLKALAKK from the venom of the Bothrops asper snake was used as a positive control for growth inhibition.

The subject of data set [1] is Staphylococcus aureus (ATCC 25923). The data set is classed as cell-based. The conditions noted are these: S. aureus ATCC 25923; 1 × 10^7 CFU/mL; 1% TSB, 10 mM Hepes; 10, 20 and 30 μM peptide, 1 h at 37 °C; serial dilution, 18 h at 37 °C in complete TSB; turbidity; duplicate. The procedure:
as §1, §2

Several values for one entry are separate records, joined by “and”; a condition that tells them apart may be missing. Identical values can stand only once. No end group written: not given here.

With RRRRRRRRRWR-NH2 [W10], the Percentage of polyproline II, Equation (2) is 46% and 68% and 49% (2×). For the same compound, the “Minimum Bactericidal Concentration” value in the data set with Escherichia coli (ML35) is 20 µM.
Consider RRRRRWRRRRR-NH2 [W6], for which the “Minimum Bactericidal Concentration” value came to 20 µM in data set [1] and 15 µM in the data set on Escherichia coli (ML35).
For RLRRRRRRRRR-NH2 [L2], in that order: 12 µM and 8 µM.
As for `N=C(N)NCCC[C@H](NC(=O)[C@H](CCCNC(=N)N)NC(=O)[C@H](CCCNC(=N)N)NC(=O)[C@H](CCCNC(=N)N)NC(=O)[C@H](CCCNC(=N)N)NC(=O)[C@H](CCCNC(=N)N)NC(=O)[C@H](CCCNC(=N)N)NC(=O)[C@H](CCCNC(=N)N)NC(=O)[C@H](CCCNC(=N)N)NC(=O)[C@@H](N)CCCNC(=N)N)C(=O)N[C@@H](Cc1c[nH]c2ccccc12)C(N)=O` [W11], the figures for the “Minimum Bactericidal Concentration” value (in data set [1]; with Escherichia coli (ML35)) were 10 µM and 20 µM, respectively.
For RRRRRRRPRRR-NH2 [P8], the Percentage of polyproline II, Equation (2) is 49% (2×) and 40% and 50%. Further, the “Minimum Bactericidal Concentration” value in data set [1] is 9 µM. Also, in the data set on Escherichia coli (ML35), the “Minimum Bactericidal Concentration” value stood at 30 µM.
For the compound `C[C@H](N)C(=O)N[C@@H](CCCNC(=N)N)C(=O)N[C@@H](CCCNC(=N)N)C(=O)N[C@@H](CCCNC(=N)N)C(=O)N[C@@H](CCCNC(=N)N)C(=O)N[C@@H](CCCNC(=N)N)C(=O)N[C@@H](CCCNC(=N)N)C(=O)N[C@@H](CCCNC(=N)N)C(=O)N[C@@H](CCCNC(=N)N)C(=O)N[C@@H](CCCNC(=N)N)C(=O)N[C@@H](CCCNC(=N)N)C(N)=O` [A1], in the data set on Escherichia coli (ML35), the “Minimum Bactericidal Concentration” value was above 30 µM.
With RRRRRRRWRRR-NH2 [W8], the “Minimum Bactericidal Concentration” value (in data set [1]; in the data set with Escherichia coli (ML35)) was 20 µM throughout.
On to `CC(C)C[C@H](N)C(=O)N[C@@H](CCCNC(=N)N)C(=O)N[C@@H](CCCNC(=N)N)C(=O)N[C@@H](CCCNC(=N)N)C(=O)N[C@@H](CCCNC(=N)N)C(=O)N[C@@H](CCCNC(=N)N)C(=O)N[C@@H](CCCNC(=N)N)C(=O)N[C@@H](CCCNC(=N)N)C(=O)N[C@@H](CCCNC(=N)N)C(=O)N[C@@H](CCCNC(=N)N)C(=O)N[C@@H](CCCNC(=N)N)C(N)=O` [L1], for which the entries for the “Minimum Bactericidal Concentration” value (in data set [1]; in the data set on Escherichia coli (ML35)) were 9 µM and 13 µM, respectively.
With RRRRRRRRRPR-NH2 [P10], the “Minimum Bactericidal Concentration” value (in data set [1]; in the data set on Escherichia coli (ML35)) was 30 µM each time.
Take RRRRRRRLRRR-NH2 [L8]: the Percentage of polyproline II, Equation (2) is 51% and 65% (2×) and 62%. Further, the “Minimum Bactericidal Concentration” value in the data set on Escherichia coli (ML35) amounted to 18 µM.
With RWRRRRRRRRR-NH2 [W2], the Percentage of polyproline II, Equation (2) was 56% (2×) and 64% and 47%. In addition, the “Minimum Bactericidal Concentration” value in data set [1] amounted to 30 µM. For the same compound, the “Minimum Bactericidal Concentration” value with Escherichia coli (ML35) was above 30 µM.
As for RARRRRRRRRR-NH2 [A2], the “Minimum Bactericidal Concentration” value in the data set with Escherichia coli (ML35) turned out to be 18 µM.
Same read-out and setting: the same measure for RRRRRRRRRLR-NH2 [L10]: 20 µM.
With RPRRRRRRRRR-NH2 [P2], in the data set on Escherichia coli (ML35), the “Minimum Bactericidal Concentration” value came out at 30 µM.
For the compound RRRRARRRRRR-NH2 [A5], in the data set with Escherichia coli (ML35), the “Minimum Bactericidal Concentration” value was 20 µM.
RRRRRRPRRRR-NH2 [P7]: the “Minimum Bactericidal Concentration” value in data set [1] was found to be 7 µM; with Escherichia coli (ML35), 10 µM.
Take RRRRWRRRRRR-NH2 [W5]: the entries for the “Minimum Bactericidal Concentration” value (in data set [1]; in the data set with Escherichia coli (ML35)) were 10 µM and 20 µM, respectively.
As for RRRRRRRARRR-NH2 [A8], the “Minimum Bactericidal Concentration” value with Escherichia coli (ML35) is 30 µM.
With RRRRRRARRRR-NH2 [A7], the “Minimum Bactericidal Concentration” value in the data set on Escherichia coli (ML35) is 20 µM.
As to `C[C@H](NC(=O)[C@H](CCCNC(=N)N)NC(=O)[C@H](CCCNC(=N)N)NC(=O)[C@H](CCCNC(=N)N)NC(=O)[C@H](CCCNC(=N)N)NC(=O)[C@H](CCCNC(=N)N)NC(=O)[C@H](CCCNC(=N)N)NC(=O)[C@H](CCCNC(=N)N)NC(=O)[C@H](CCCNC(=N)N)NC(=O)[C@H](CCCNC(=N)N)NC(=O)[C@@H](N)CCCNC(=N)N)C(N)=O` [A11], the Percentage of polyproline II, Equation (2) was 49% (2×) and 45% and 50%. The “Minimum Bactericidal Concentration” value in data set [1] amounted to 8 µM. In addition, the “Minimum Bactericidal Concentration” value with Escherichia coli (ML35) turned out to be 20 µM.
Turning to RRRRRRRRRAR-NH2 [A10], the figures for the “Minimum Bactericidal Concentration” value (in data set [1]; with Escherichia coli (ML35)) were 6 µM and 10 µM, respectively.
On to RRRRRRLRRRR-NH2 [L7], for which the “Minimum Bactericidal Concentration” value with Escherichia coli (ML35) came to 9 µM.
With RRRRLRRRRRR-NH2 [L5], the results for the “Minimum Bactericidal Concentration” value (in data set [1]; with Escherichia coli (ML35)) were 8 µM and 18 µM, respectively.
The corresponding values for RRRRRRWRRRR-NH2 [W7] are 8 µM and 14 µM.
`CC(C)C[C@H](NC(=O)[C@H](CCCNC(=N)N)NC(=O)[C@H](CCCNC(=N)N)NC(=O)[C@H](CCCNC(=N)N)NC(=O)[C@H](CCCNC(=N)N)NC(=O)[C@H](CCCNC(=N)N)NC(=O)[C@H](CCCNC(=N)N)NC(=O)[C@H](CCCNC(=N)N)NC(=O)[C@H](CCCNC(=N)N)NC(=O)[C@H](CCCNC(=N)N)NC(=O)[C@@H](N)CCCNC(=N)N)C(N)=O` [L11]: the “Minimum Bactericidal Concentration” value in the data set on Escherichia coli (ML35) is 30 µM.
In the case of RRRLRRRRRRR-NH2 [L4], the “Minimum Bactericidal Concentration” value in data set [1] was determined as 9 µM; in the data set on Escherichia coli (ML35), 20 µM.
For RRWRRRRRRRR-NH2 [W3], in that order: 20 µM and above 30 µM.
As to RRLRRRRRRRR-NH2 [L3], the “Minimum Bactericidal Concentration” value in data set [1] came to 9 µM; in the data set on Escherichia coli (ML35) it was 10 µM.
As to `N=C(N)NCCC[C@H](NC(=O)[C@H](CCCNC(=N)N)NC(=O)[C@H](CCCNC(=N)N)NC(=O)[C@H](CCCNC(=N)N)NC(=O)[C@H](CCCNC(=N)N)NC(=O)[C@H](CCCNC(=N)N)NC(=O)[C@H](CCCNC(=N)N)NC(=O)[C@H](CCCNC(=N)N)NC(=O)[C@H](CCCNC(=N)N)NC(=O)[C@H](CCCNC(=N)N)NC(=O)[C@@H](N)Cc1c[nH]c2ccccc12)C(N)=O` [W1], the “Minimum Bactericidal Concentration” value was above 30 µM in data set [1] and 30 µM in the data set on Escherichia coli (ML35).
For `N=C(N)NCCC[C@H](NC(=O)[C@H](CCCNC(=N)N)NC(=O)[C@H](CCCNC(=N)N)NC(=O)[C@H](CCCNC(=N)N)NC(=O)[C@H](CCCNC(=N)N)NC(=O)[C@@H](N)CCCNC(=N)N)C(=O)N[C@@H](CCCNC(=N)N)C(=O)N[C@@H](CCCNC(=N)N)C(=O)N[C@@H](CCCNC(=N)N)C(=O)N[C@@H](CCCNC(=N)N)C(=O)N1CCC[C@H]1C(N)=O` [P11], in that order: 18 µM and 30 µM.
As to RRRRRLRRRRR-NH2 [L6], the “Minimum Bactericidal Concentration” value in data set [1] was 28 µM; with Escherichia coli (ML35), above 30 µM.
In the case of RRRRRRRRWRR-NH2 [W9], the “Minimum Bactericidal Concentration” value is 10 µM in data set [1] and 20 µM in the data set on Escherichia coli (ML35).
For the compound RRRRRARRRRR-NH2 [A6], the “Minimum Bactericidal Concentration” value in the data set on Escherichia coli (ML35) was 26 µM.
Take RRRRRRRRPRR-NH2 [P9]: the Percentage of polyproline II, Equation (2) was 41% (2×) and 27% and 43%. Besides, the “Minimum Bactericidal Concentration” value in data set [1] worked out at 10 µM. In addition, the “Minimum Bactericidal Concentration” value in the data set with Escherichia coli (ML35) amounted to 20 µM.
As to RRRPRRRRRRR-NH2 [P4], the Percentage of polyproline II, Equation (2) was 49% (2×) and 29% and 41%. In the data set on Escherichia coli (ML35), the “Minimum Bactericidal Concentration” value is above 30 µM.
Consider RRPRRRRRRRR-NH2 [P3], for which the “Minimum Bactericidal Concentration” value in data set [1] is 8 µM; in the data set on Escherichia coli (ML35) it was 28 µM.
As to RRARRRRRRRR-NH2 [A3], in the data set on Escherichia coli (ML35), the “Minimum Bactericidal Concentration” value turned out to be 10 µM.
On the same count and under the same terms, the same measure for `N=C(N)NCCC[C@H](NC(=O)[C@H](CCCNC(=N)N)NC(=O)[C@H](CCCNC(=N)N)NC(=O)[C@H](CCCNC(=N)N)NC(=O)[C@H](CCCNC(=N)N)NC(=O)[C@H](CCCNC(=N)N)NC(=O)[C@H](CCCNC(=N)N)NC(=O)[C@H](CCCNC(=N)N)NC(=O)[C@H](CCCNC(=N)N)NC(=O)[C@H](CCCNC(=N)N)NC(=O)[C@@H](N)CCCNC(=N)N)C(N)=O` [R11]: 30 µM.
With RRRARRRRRRR-NH2 [A4], the Percentage of polyproline II, Equation (2) is 46% (2×) and 58% and 51%. In addition, the “Minimum Bactericidal Concentration” value with Escherichia coli (ML35) is 26 µM.
With RRRRRPRRRRR-NH2 [P6], the “Minimum Bactericidal Concentration” value with Escherichia coli (ML35) came to 18 µM.
For `N=C(N)NCCC[C@H](NC(=O)[C@H](CCCNC(=N)N)NC(=O)[C@H](CCCNC(=N)N)NC(=O)[C@H](CCCNC(=N)N)NC(=O)[C@H](CCCNC(=N)N)NC(=O)[C@H](CCCNC(=N)N)NC(=O)[C@H](CCCNC(=N)N)NC(=O)[C@H](CCCNC(=N)N)NC(=O)[C@H](CCCNC(=N)N)NC(=O)[C@H](CCCNC(=N)N)NC(=O)[C@@H]1CCCN1)C(N)=O` [P1], the “Minimum Bactericidal Concentration” value in the data set on Escherichia coli (ML35) worked out at 18 µM.
The same measure, in the same setting: the same measure for RRRRRRRRLRR-NH2 [L9]: 8 µM.
Take RRRRPRRRRRR-NH2 [P5]: the results for the “Minimum Bactericidal Concentration” value (in data set [1]; in the data set on Escherichia coli (ML35)) were 8 µM and 28 µM, respectively.
In the case of RRRWRRRRRRR-NH2 [W4], the “Minimum Bactericidal Concentration” value (in data set [1]; with Escherichia coli (ML35)) was 20 µM each time.
As for RRRRRRRRARR-NH2 [A9], the “Minimum Bactericidal Concentration” value in the data set on Escherichia coli (ML35) is above 30 µM.
